Measured values reported in paper PMC9029089, “1,5-Disubstituted Acylated 2-Amino-4,5-dihydroimidazoles as a New Class of Retinoic Acid Receptor–Related Orphan Receptor (ROR) Inhibitors” (International Journal of Molecular Sciences, 2022).

Molecular target: T1, RORγ (Mus musculus, UniProt P51450)
T1 construct: mRORγ (Pro-261-end); expressed in transfected cells
T1 sequence (P51450 261-516 limits assumed): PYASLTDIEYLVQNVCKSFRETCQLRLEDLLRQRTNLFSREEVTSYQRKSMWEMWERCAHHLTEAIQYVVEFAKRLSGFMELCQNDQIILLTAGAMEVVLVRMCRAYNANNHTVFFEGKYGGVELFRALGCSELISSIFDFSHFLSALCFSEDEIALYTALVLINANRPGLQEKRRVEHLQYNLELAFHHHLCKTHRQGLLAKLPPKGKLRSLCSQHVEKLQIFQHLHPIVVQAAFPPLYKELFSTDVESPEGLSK
Assay: Gal4-RORγ-LBD UAS-luciferase reporter assay in TRex-CHO-K1 cells (doxycycline-stimulated)
Format: cell-based
Details: individual controls 1295.201-307, 5 μg/ml, triplicate
Description: The Gal4-DBD-ROR-LBD fusion proteins were subcloned in the pcDNA4/TO expression vector (Thermo Scientific) and transfected into TRex-CHO-K1 cells (Thermo Scientific) for tetracycline-controlled expression of the corresponding ROR proteins. Transfected cells were selected with hygromycin and Zeocin and individual clones for each of the Gal4-RORγ, Gal4-RORα, and Gal4-RORβ cell lines were isolated using a standard serial dilution protocol. Clones with the highest doxycycline-dependent stimulation of luciferase activity were selected for all functional experiments.
For screening FIU libraries, cells were resuspended in Ham’s F-12 assay medium containing 2% charcoal-treated FBS and no selection drugs. […] Cells were allowed to attach for 2 h, followed by compound treatment and stimulation with 20 ng/mL doxycycline for an additional 16–20 h. Appropriate solvent controls, negative controls with no doxycycline, and blanks with no cells were included in every plate. Prior to measuring luciferase activity, 6 µL of 0.15 mg/mL resazurin (Cayman Chemical) in PBS were added and cells were incubated for 1 h at 37 °C. Fluorescence intensity was detected at 545 nm excitation/590 nm emission using a CLARIOstar reader (BMGLabtech) as a measure of cell viability, to identify any potential cytotoxic effect of test compounds and mixtures.
Luminescence was normalized by the fluorescence intensity and the percentage of inhibition was calculated with respect to control cells stimulated with doxycycline in the presence of solvent control (0.1% DMF). All primary screens with individual compounds were performed in triplicate with a final concentration of 5 µg/mL. […] IC50 values were calculated using GraphPrism (GraphPad software).

Row | SMILES | % Inhibition RORγ 5 μg/ml
1 | O=C(Cc1ccccc1)NC1=NC[C@H](Cc2cccnc2)N1CCc1ccccc1 [1295.229] | -23.1%
2 | O=C(Cc1ccccc1)NC1=NC[C@@H](Cc2cccnc2)N1CCc1ccccc1 [1295.230] | -16.0%
3 | CC(C)(C)[C@H]1CN=C(NC(=O)Cc2ccccc2)N1CCc1ccccc1 [1295.231] | -31.5%
4 | CC(C)(C)[C@@H]1CN=C(NC(=O)Cc2ccccc2)N1CCc1ccccc1 [1295.232] | 8.2%
5 | CCOc1ccc(C[C@H]2CN=C(NC(=O)Cc3ccccc3)N2CCc2ccccc2)cc1 [1295.233] | 31.0%
6 | CCOc1ccc(C[C@@H]2CN=C(NC(=O)Cc3ccccc3)N2CCc2ccccc2)cc1 [1295.234] | -7.7%
7 | Cc1cccc(CCN2C(NC(=O)Cc3ccccc3)=NC[C@@H]2Cc2ccccc2)c1 [1295.237] | -4.8%
8 | O=C(Cc1ccccc1)NC1=NC[C@H](Cc2ccccc2)N1CCc1cccc(F)c1 [1295.238] | 34.6%
9 | O=C(Cc1ccccc1)NC1=NC[C@H](Cc2ccccc2)N1CCc1cccc(Br)c1 [1295.239] | 47.8%
10 | O=C(Cc1ccccc1)NC1=NC[C@H](Cc2ccccc2)N1CCc1ccc(F)cc1 [1295.240] | 52.2%
11 | COc1cccc(CCN2C(NC(=O)Cc3ccccc3)=NC[C@@H]2Cc2ccccc2)c1 [1295.241] | 7.4%
12 | O=C(Cc1ccccc1)NC1=NC[C@H](Cc2ccccc2)N1CCc1ccc(Br)cc1 [1295.242] | 67.1%
13 | COc1ccc(CCN2C(NC(=O)Cc3ccccc3)=NC[C@@H]2Cc2ccccc2)cc1 [1295.243] | 27.2%
14 | CCOc1ccc(CCN2C(NC(=O)Cc3ccccc3)=NCC2Cc2ccccc2)cc1 (stereo not shown) [1295.244] | 5.9%
15 | O=C(Cc1ccccc1)NC1=NC[C@H](Cc2ccccc2)N1CCc1cc(C(F)(F)F)cc(C(F)(F)F)c1 [1295.246] | 20.0%
16 | COc1ccc(CCCN2C(NC(=O)Cc3ccccc3)=NC[C@H]2Cc2ccccc2)cc1OC [1295.247] | 32.5%
17 | COc1ccc(CCN2C(NC(=O)Cc3ccccc3)=NC[C@@H]2Cc2ccccc2)cc1OC [1295.249] | 42.2%
18 | O=C(Cc1ccccc1)NC1=NC[C@H](Cc2ccccc2)N1CCc1ccccc1 [1295.250] | 9.9%
19 | O=C(Cc1ccccc1)NC1=NC[C@H](Cc2ccccc2)N1CCCc1ccccc1 [1295.251] | -112.4%
20 | O=C(Cc1ccccc1)NC1=NC[C@H](Cc2ccccc2)N1CCCCc1ccccc1 [1295.252] | -2.3%
21 | CCCCN1C(NC(=O)Cc2ccccc2)=NC[C@@H]1Cc1ccccc1 [1295.253] | -12.1%
22 | CCCCCCCN1C(NC(=O)Cc2ccccc2)=NC[C@@H]1Cc1ccccc1 [1295.254] | 48.4%
23 | CC(C)CN1C(NC(=O)Cc2ccccc2)=NC[C@@H]1Cc1ccccc1 [1295.255] | -9.8%
24 | CC(C)CCN1C(NC(=O)Cc2ccccc2)=NC[C@@H]1Cc1ccccc1 [1295.257] | -28.5%
25 | CC(C)(C)CN1C(NC(=O)Cc2ccccc2)=NC[C@@H]1Cc1ccccc1 [1295.259] | -25.1%
26 | O=C(Cc1ccccc1)NC1=NC[C@H](Cc2ccccc2)N1CC1CCCCC1 [1295.260] | -10.7%
27 | O=C(Cc1ccccc1)NC1=NC[C@H](Cc2ccccc2)N1CC1CCCCCC1 [1295.263] | -8.4%

Row | SMILES | % Inhibition RORγ 5 μg/ml
28 | CCN1C(NC(=O)Cc2ccccc2)=NC[C@@H]1Cc1ccccc1 [1295.264] | 7.5%
29 | O=C(Cc1ccccc1)NC1=NC[C@H](Cc2ccccc2)N1CC1CCC1 [1295.265] | 53.1%
30 | O=C(Cc1ccccc1)NC1=NC[C@H](Cc2ccccc2)N1CC1CCCC1 [1295.266] | 99.6%
31 | O=C(Cc1ccccc1)NC1=NC[C@H](Cc2ccccc2)N1CCCC1CCCC1 [1295.267] | 56.2%
32 | Cc1cccc(CC(=O)NC2=NC[C@H](Cc3ccccc3)N2CCc2ccccc2)c1 [1295.275] | 60.7%
33 | O=C(Cc1cccc(F)c1)NC1=NC[C@H](Cc2ccccc2)N1CCc1ccccc1 [1295.276] | 104.2%
34 | O=C(Cc1cccc(Br)c1)NC1=NC[C@H](Cc2ccccc2)N1CCc1ccccc1 [1295.277] | 97.6%
35 | O=C(Cc1ccc(F)cc1)NC1=NC[C@H](Cc2ccccc2)N1CCc1ccccc1 [1295.278] | 29.8%
36 | COc1cccc(CC(=O)NC2=NC[C@H](Cc3ccccc3)N2CCc2ccccc2)c1 [1295.279] | 75.2%
37 | O=C(Cc1ccc(Br)cc1)NC1=NC[C@H](Cc2ccccc2)N1CCc1ccccc1 [1295.280] | 42.0%
38 | COc1ccc(CC(=O)NC2=NC[C@H](Cc3ccccc3)N2CCc2ccccc2)cc1 [1295.281] | 52.6%
39 | CCOc1ccc(CC(=O)NC2=NC[C@H](Cc3ccccc3)N2CCc2ccccc2)cc1 [1295.282] | -2.3%
40 | COc1ccc(CCC(=O)NC2=NC[C@H](Cc3ccccc3)N2CCc2ccccc2)cc1OC [1295.284] | 34.0%
41 | O=C(Cc1ccc(-c2ccccc2)cc1)NC1=NC[C@H](Cc2ccccc2)N1CCc1ccccc1 [1295.285] | 11.1%
42 | COc1ccc(CC(=O)NC2=NC[C@H](Cc3ccccc3)N2CCc2ccccc2)cc1OC [1295.287] | 54.7%
43 | Cc1cccc(C(=O)NC2=NC[C@H](Cc3ccccc3)N2CCc2ccccc2)c1 [1295.288] | 59.9%
44 | O=C(CCCc1ccccc1)NC1=NC[C@H](Cc2ccccc2)N1CCc1ccccc1 [1295.290] | 60.2%
45 | O=C(Cc1ccccc1)NC1=NC[C@H](Cc2ccccc2)N1CCc1ccccc1 [1295.291] | 5.6%
46 | CCc1ccc(-c2ccc(C(=O)NC3=NC[C@H](Cc4ccccc4)N3CCc3ccccc3)cc2)cc1 [1295.292] | 48.3%
47 | CCCC(=O)NC1=NC[C@H](Cc2ccccc2)N1CCc1ccccc1 [1295.293] | 37.4%
48 | CCCCCCC(=O)NC1=NC[C@H](Cc2ccccc2)N1CCc1ccccc1 [1295.294] | 44.3%
49 | CC(C)C(=O)NC1=NC[C@H](Cc2ccccc2)N1CCc1ccccc1 [1295.295] | 31.3%
50 | CC(C)CCC(=O)NC1=NC[C@H](Cc2ccccc2)N1CCc1ccccc1 [1295.297] | 62.2%
51 | CC(=O)NC1=NC[C@H](Cc2ccccc2)N1CCc1ccccc1 [1295.301] | 15.4%
52 | O=C(NC1=NC[C@H](Cc2ccccc2)N1CCc1ccccc1)C1CCC1 [1295.302] | 24.7%
53 | O=C(NC1=NC[C@H](Cc2ccccc2)N1CCc1ccccc1)C1CCCC1 [1295.303] | 3.3%
54 | O=C(CCC1CCCC1)NC1=NC[C@H](Cc2ccccc2)N1CCc1ccccc1 [1295.304] | 45.5%

Molecular target: T1, RORγ
Assay: as above
Format: cell-based
Details: library 2520, RORγ cells

Row | SMILES | % Inhibition at 4 μM (N=3)
55 | COc1ccc(CC(=O)NC2=NCC(Cc3ccc4ccccc4c3)N2CCC2CC3CCC2C3)cc1 (mixture of isomers) [2520.02] | -33.8%
56 | CCC(C(=O)NC1=NCC(Cc2ccc3ccccc3c2)N1CC1CCCCC1)c1ccccc1 (mixture of isomers) [2520.03] | -31.8%
57 | CC(C)C(=O)NC1=NCC(Cc2ccc3ccccc3c2)N1CCC(C)c1ccccc1 (mixture of isomers) [2520.04] | -40.8%
58 | CCC(C(=O)NC1=NCC(Cc2ccc3ccccc3c2)N1CCC(C)c1ccccc1)c1ccccc1 (mixture of isomers) [2520.07] | -32.2%
59 | COc1ccc(CC(=O)NC2=NCC(Cc3ccc4ccccc4c3)N2CCC(C)c2ccccc2)cc1 (mixture of isomers) [2520.10] | -7.3%
60 | CCC(C)C1CN=C(NC(=O)Cc2ccc(OC)cc2)N1CCC1CC2CCC1C2 (mixture of isomers) [2520.14] | 43.0%
61 | CCC(C)C1CN=C(NC(=O)C(C)C)N1CCC1CC2CCC1C2 (mixture of isomers) [2520.20] | 13.3%
62 | CCC(C(=O)NC1=NCC(C(C)CC)N1CCC1CC2CCC1C2)c1ccccc1 (mixture of isomers) [2520.23] | 35.9%
63 | COc1ccc(CC(=O)NC2=NCC(Cc3ccccc3)N2CCC2CC3CCC2C3)cc1 (mixture of isomers) [2520.26] | 40.8%
64 | CC(C)C(=O)NC1=NCC(Cc2ccccc2)N1CCC1CC2CCC1C2 (mixture of isomers) [2520.32] | 36.0%
